From publication PMC1838960, “Inhibition of Hippocampal Matrix Metalloproteinase-3 and -9 Disrupts Spatial Memory” (Neural Plasticity, 2006)

Assays:
[1] = target: T1, MMP-9 (gelatinase B) catalytic domain (Homo sapiens, UniProt P14780); assay: MMP fluorescence enzyme assay, MMP-9 catalytic domain; type: biochemical
T1 construct: Catalytic domains for MMP-3 and -9 were used; purchased Biomol International LP
Procedure: (§1) Enzyme assays for MMP activity were conducted in black 96-well plates according to manufacturer instructions (Biomol International LP, Plymouth Meeting, Pa). Catalytic domains for MMP-3 and -9 were used with the fluorogenic peptide substrate: Mca-Pro-Leu-Gly-Leu-Dpa-Ala-Arg-NH2. Solutions were preincubated with FN-439 for 30 minutes at 37°C. Subsequently, the fluorogenic peptide substrate was added and fluorescence was measured at 10-minute intervals for one hour using a Perkin-Elmer plate reader. Slopes were derived from the linear portion of the curves and background slopes were subtracted from all samples. The slopes were normalized as percent of enzyme activity compared with activity in the absence of inhibitor. IC50 values were extrapolated using quadratic and sigmoidal curve fit programs for each sample and were averaged.

[2] = test system: cell nuclei of hippocampal sections; assay: Cell nuclei (DAPI) appearance in hippocampal sections, cellular toxicity; parameters: species or system rat; details: 14.4 mM; vs PBS
Procedure: (§2) Naïve rats were euthanized by decapitation, their brains were sectioned (10 μm) using a cryostat and the sections were mounted on slides and stored at −80°C for no longer than a week. These sections were warmed to room temperature for 10 minutes and preincubated for 3 hours in either PBS (pH 7.4 control) or 14.4 mM FN-439 in PBS at 37°C. The control slides were then incubated for an additional hour with DQ-gelatin-FITC (DQ, Molecular Probes, Eugene, Ore) and the treated slides were incubated with DQ containing 14.4 mM FN-439 for 1 additional hour. Following incubation, the slides were washed in PBS, fixed with 4% paraformaldehyde in PBS, and cover slipped using prolong antifade mounting medium containing DAPI (Molecular Probes, Eugene, Ore). The slides were examined using a Zeiss Axioplan 2I microscope using epifluorescent illumination and appropriate filter sets for visualizing DQ (FITC) and DAPI (UV) fluorescence. Images were captured at 100–200X magnification using a Kodak DC290 digital camera and Photoshop software (Adobe Systems Inc, San Jose, Calif).

[3] = test system: MMP-2 and MMP-9 gelatinase activity in the hippocampus; assay: In situ zymography of hippocampal sections (DQ-gelatin-FITC); parameters: species or system rat; details: 14.4 mM, 3 h preincubation at 37°C plus 1 h with DQ-gelatin, vs PBS
Procedure: as §2

[4] = icv, 7.2 mM stock, 10 μL (35 μg) twice, cumulative 70 μg; ref [27]; cited from earlier work
From the text: (§3) The potential contribution of ECM remodeling to learning and memory has only recently been addressed. Our laboratory has focused on hippocampal mediated spatial memory and measured elevations in hippocampal MMP-3 and MMP-9 during acquisition of the Morris water maze task.

[5] = test system: late-phase of long-term potentiation (LTP); details: ref [27]; cited from earlier work
From the text: as §3

[6] = target: T2, MMP-3 (stromelysin-1) catalytic domain (Homo sapiens, UniProt P08254); assay: MMP fluorescence enzyme assay, MMP-3 catalytic domain; type: biochemical
T2 construct: Catalytic domains for MMP-3 and -9 were used; purchased Biomol International LP
T2 sequence (P08254 100-272 limits assumed): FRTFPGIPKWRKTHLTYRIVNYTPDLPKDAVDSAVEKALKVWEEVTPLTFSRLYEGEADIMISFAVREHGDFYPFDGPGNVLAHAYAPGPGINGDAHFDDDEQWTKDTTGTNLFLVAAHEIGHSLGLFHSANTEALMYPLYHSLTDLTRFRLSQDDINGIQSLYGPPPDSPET
Procedure: as §1

HSF stromelysin = details: ref Odake et al. [37], read-out: IC50 against stromelysin; cited from earlier work
From the text: (§4) There are at least two possible explanations for these differences. First, Odake and colleagues used HSF stromelysin and HG gelatinase as substrates, while we used MMP-3 (stromelyisin-1) and MMP-9 (gelatinase B). Secon ...

HG gelatinase = details: ref Odake et al. [37], read-out: IC50 against gelatinase; cited from earlier work
From the text: as §4

[7] = Morris water maze task, probe trial; type: in vivo, male Sprague-Dawley rats; details: for time spent in the target quadrant: 70 μg/day cumulative, 120-s probe trial on day 8, mean ± SEM
From the text: The protocols utilized in this investigation minimized pain and discomfort, were approved by the Washington State University Institutional Animal Care and Use Committee, and conformed to the guidelines for the care and use of laboratory animals as required by the National Institutes of Health Guide for the Care and Use of Laboratory Animals (NIH Publication No. 80-23). Male Sprague-Dawley rats (300–350 g, breeding stock derived from Taconic, Germantown, NY) were adapted to a 12-hour light/dark cycle initiated at 0600 hour in the American Association for the Accreditation of Laboratory Animal Care approved vivarium at a temperature of 21 ± 1°C. The animals were housed in pairs and provided with water and food (Harlan Teklad F6 Rodent Diet, Madison, WI) ad libitum except the night prior to surgery when food was withheld. Each animal was prepared with bilateral guide cannulas targeting either the dorsal hippocampi (flat skull coordinates relative to bregma: post: −4.0 mm, lat: ±2.5 mm from midline) or lateral ventricles (post: 1.0 mm, lat: ±1.5 mm from midline) under ketamine-xylazine anesthesia (100 and 2 mg/kg, resp., intramuscularly). The guide was constructed from PE-60 tubing (Clay Adams, Parsippany, NJ) with a heat bulge that rested on top of the cranium thus serving as a stop to further penetration. The total length of the guide was 2.5 cm with a distance from the beveled tip to the heat bulge of 2.0 and 2.5 mm for the dorsal hippocampus and icv, respectively. All infusions were made using a 30-gauge stainless-steel tubing injector with a beveled end that protruded 2.0 mm beyond the tip of the PE guide cannula. The injector was attached to a 10 μL Hamilton syringe by PE-20 tubing. The animals were hand gentled for 5 minutes per day during the 7 days of recovery from surgery. […]
The Morris water maze task was used to test spatial memory acquisition. […] Swim speed was determined from these values. […]

[8] = Morris water maze task, acquisition training; type: in vivo, male Sprague-Dawley rats; details: for positive thigmotaxis (ratio of time near the wall to total trial time), day 8 / day 8 latency to find the platform / day 8 distance swum to find the platform: 70 μg/day cumulative; for day 8 latency to find the platform / day 8 distance swum to find the platform: mean ± SEM; for day 8 latency to find the platform: n = 8; for overall swim speed during the 8 days of training: no difference; for distance to find the platform, representative rat / latency to find the platform, representative rat: single rat, day 8 trial
From the text: The protocols utilized in this investigation minimized pain and discomfort, were approved by the Washington State University Institutional Animal Care and Use Committee, and conformed to the guidelines for the care and use of laboratory animals as required by the National Institutes of Health Guide for the Care and Use of Laboratory Animals (NIH Publication No. 80-23). Male Sprague-Dawley rats (300–350 g, breeding stock derived from Taconic, Germantown, NY) were adapted to a 12-hour light/dark cycle initiated at 0600 hour in the American Association for the Accreditation of Laboratory Animal Care approved vivarium at a temperature of 21 ± 1°C. The animals were housed in pairs and provided with water and food (Harlan Teklad F6 Rodent Diet, Madison, WI) ad libitum except the night prior to surgery when food was withheld. Each animal was prepared with bilateral guide cannulas targeting either the dorsal hippocampi (flat skull coordinates relative to bregma: post: −4.0 mm, lat: ±2.5 mm from midline) or lateral ventricles (post: 1.0 mm, lat: ±1.5 mm from midline) under ketamine-xylazine anesthesia (100 and 2 mg/kg, resp., intramuscularly). The guide was constructed from PE-60 tubing (Clay Adams, Parsippany, NJ) with a heat bulge that rested on top of the cranium thus serving as a stop to further penetration. The total length of the guide was 2.5 cm with a distance from the beveled tip to the heat bulge of 2.0 and 2.5 mm for the dorsal hippocampus and icv, respectively. All infusions were made using a 30-gauge stainless-steel tubing injector with a beveled end that protruded 2.0 mm beyond the tip of the PE guide cannula. The injector was attached to a 10 μL Hamilton syringe by PE-20 tubing. The animals were hand gentled for 5 minutes per day during the 7 days of recovery from surgery. Those animals prepared with dorsal hippocampus guide cannulas were randomly assigned to one of two groups (8 rats each) that received either FN-439 or artificial cerebrospinal fluid vehicle (aCSF; in mM: 124 NaCl, 3 KCl, 1.24 […], 1.3 MgSO4, 2.0 CaCl2, 26 NaHCO3, and 10 D-glucose). Those animals prepared with icv cannulas were similarly assigned.
Our laboratory previously used a 7.2 mM stock in aCSF icv infused over 5 minutes to a total volume of 10 μL (35 μg) 10 minutes prior to behavioral testing, and again 3 hours post-testing (cumulative dose = 70 μg). Presently, we utilized a 14.4 mM stock in aCSF infused over 1 minute to a total volume of 5 μL, that is, 2.5 μL for each side (17.5 μg in 2.5 μL aCSF/min) 20 minutes prior to behavioral testing (5 trials), and again 10 minutes after testing (cumulative dose = 70 μg) each day. The protocol used for icv infusion was 35 μg in 5 μL aCSF infused over 1 minute, 20 minutes prior to testing and again 10 minutes following testing (cumulative dose = 70 μg). Behavioral testing in the Morris water maze task was conducted by an experimenter blind to the treatment of each animal.
The Morris water maze task was used to test spatial memory acquisition. This protocol has been described in detail. Briefly, each trial entailed placing the animal into the water facing the wall of the pool (1.6 m in diameter painted black, filled to a depth of 30 cm) at one of four locations (North (N), South (S), East (E), and West (W)) and tracking its swimming path and duration (Chromatrac; San Diego Instruments, San Diego, Calif) until the submerged platform was found (12 cm in diameter painted black, 2 cm below the surface). Swim speed was determined from these values. If the animal located the platform within 120 seconds it was permitted 30 seconds on the platform before the next trial commenced. […] The animal's entry point was randomized on each trial, and the location of the platform was randomly assigned to one of the four quadrants and remained fixed for each animal throughout training (5 trials/day for 8 days). At the conclusion of the 5 acquisition trials on day 8 each animal was administered one probe trial. […]

[9] = test system: LTP in the sprouting crossed temporodentate pathway; details: icv 350 μg, following unilateral lesions of the entorhinal cortex; ref Reeves et al. [19]; cited from earlier work
MMP-9 = details: 7.2 mM stock in aCSF infused over 30 min, 100 μL (350 μg); vs aCSF control; ref Reeves et al. [19]; cited from earlier work
[10] = catalytic domain, substrate Mca-Pro-Leu-Gly-Leu-Dpa-Ala-Arg-NH2, 30 min preincubation at 37°C, fluorescence at 10-min intervals for one hour, mean ± SEM

T1 sequence (P14780 107-457 limits assumed): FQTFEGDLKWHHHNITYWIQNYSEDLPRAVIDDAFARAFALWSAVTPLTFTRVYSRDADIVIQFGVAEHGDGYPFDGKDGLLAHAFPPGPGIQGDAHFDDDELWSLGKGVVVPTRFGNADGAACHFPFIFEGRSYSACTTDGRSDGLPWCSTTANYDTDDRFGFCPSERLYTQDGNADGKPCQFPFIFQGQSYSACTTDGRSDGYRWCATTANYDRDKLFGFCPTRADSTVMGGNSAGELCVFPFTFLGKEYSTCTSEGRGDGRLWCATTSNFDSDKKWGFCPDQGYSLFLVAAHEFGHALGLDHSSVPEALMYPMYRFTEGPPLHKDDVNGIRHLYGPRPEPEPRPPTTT

CC(C)C[C@@H](NC(=O)[C@@H]1CCCN1C(=O)CNC(=O)c1ccc(N)cc1)C(=O)N[C@H](C)C(=O)NO [FN-439, 4-Abz-Gly-Pro-D-Leu-D-Ala-OH]
IC50 [1, 10]: 210 ± 37.8 µM
specificity for the MMP-9 catalytic domain (in words) ([1]; in vitro fluorescence assay): good specificity
cellular toxicity (blue fluorescence of cell nuclei) [2]: no cellular toxicity
inhibition of MMP-2 and MMP-9 in the hippocampus ([3]; dentate gyrus): significantly inhibited
basal activity of MMP-9 (green fluorescence) [3]: significantly reduced
acquisition of the Morris water maze task [4]: disrupted the acquisition of the Morris water maze task
late-phase of long-term potentiation (LTP) [5]: interfered with the late-phase of long-term potentiation
IC50 [6, 10]: 16.2 ± 7.8 µM
effect upon the MMP-3 catalytic domain (in words) ([6]; in vitro fluorescence assay): maximal effect
IC50 (HSF stromelysin): 150 µM
IC50 (HG gelatinase): 30 µM
time spent in the target quadrant ([7]; dorsal hippocampus, aCSF hippocampus 40.7 ± 2.2 s): 34.3 ± 2.7 s
number of entries into the target quadrant ([7]; hippocampus or icv, probe trial day 8, groups compared incl. aCSF (F3,28 = 0.98, P > .10)): no differences
time spent in the target quadrant ([7]; icv, aCSF icv 47.1 ± 4.0 s): 28.4 ± 0.8 s
acquisition of the Morris water maze task (in words) ([8]; bilateral into dorsal hippocampi or icv, 8 days, vs aCSF): significantly interfered with the acquisition of the task
positive thigmotaxis (ratio of time near the wall to total trial time), day 8 ([8]; dorsal hippocampus, aCSF hippocampus 0.17 ± 0.06): 0.37 ± 0.09
day 8 latency to find the platform ([8]; dorsal hippocampus, bilateral, aCSF hippocampus 13.4 ± 1.0 s): 37.9 ± 8.4 s
day 8 distance swum to find the platform ([8]; dorsal hippocampus, bilateral, aCSF hippocampus 4.2 ± 0.5 m): 12.1 ± 2.9 m
overall swim speed during the 8 days of training ([8]; dorsal hippocampus, aCSF hippocampus 0.30 ± 0.02 m/s): 0.32 ± 0.02 m/s
latencies to find the platform on days 5–8 (in words) ([8]; hippocampus or icv, vs aCSF, P < .05): significantly longer latencies
positive thigmotaxis (ratio of time near the wall to total trial time), day 8 ([8]; icv, aCSF icv 0.14 ± 0.05): 0.45 ± 0.11
day 8 latency to find the platform ([8]; icv, aCSF icv 14.3 ± 1.9 s): 44.4 ± 10.7 s
day 8 distance swum to find the platform ([8]; icv, aCSF icv 5.8 ± 0.7 m): 12.9 ± 2.7 m
overall swim speed during the 8 days of training ([8]; icv, aCSF icv 0.31 ± 0.02 m/s): 0.31 ± 0.02 m/s
dorsal hippocampus infusion compared with icv delivery (in words) ([8]; interference with acquisition of the Morris water maze task): equivalently effective
distance to find the platform, representative rat ([8]; dorsal hippocampus, aCSF rat 5.9 m): 17.9 m
latency to find the platform, representative rat ([8]; dorsal hippocampus, aCSF rat 15 s): 38.3 s
distance to find the platform, representative rat ([8]; icv, aCSF rat 4.7 m): 14.8 m
latency to find the platform, representative rat ([8]; icv, aCSF rat 13.3 s): 43.9 s
LTP in the sprouting pathway [9]: lack the ability to demonstrate LTP in the sprouting pathway
inhibition of MMP-9 activity (MMP-9): 83.6%
